Data from patent US20120172313A1, “TREATMENT OF PROLIFERATIVE DISEASES” (priority 2010, published 2012).
Bridges are numbered along the chain shown (N, C = ends). Where no end group is shown, it is not given here.

Key:
[1] = Lipid-coated membrane strip binding assay (Echelon lipid strips); details: 0.12 μM, overnight, 4° C.
Protocol: Membrane Lipid Strips™, PIP Strips™ and Sphingo Strips™ (Echelon Biosciences, Salt Lake City, Utah) were incubated with PBS/3% BSA for 1-2 h at RT to block non-specific binding. The membrane strips were then incubated with defensins (0.12 μM) diluted in PBS/1% BSA overnight at 4° C., prior to thorough washing for 60 min at RT with PBS/0.1% Tween-20. […] After each antibody incubation, the membrane strips were washed extensively for 60 min at RT with PBS/0.1% Tween-20. Chemiluminescence was detected using the enhanced chemiluminescence (ECL) western blotting reagent (GE Healthcare BioSciences, NSW Australia) and exposed to Hyperfilm (GE Healthcare BioSciences, NSW, Australia) and developed using an Xomat (All-Pro-Imaging).
Densitometry analysis was performed on images obtained from lipid strips using ImageJ (National Institute of Health, Bethesda, Md.). Briefly, circles of equivalent size were traced around areas of interest. A background circle of equal size was also placed in the area on the membrane where there is no lipid and set as the background. The areas of interest were quantified as the average pixel intensity subtracted from the background.
These strips are spotted with 100 pmole of each lipid in a biologically active form.
Further investigation of the interaction of Solanaceae class I and class II defensins with cellular lipids was carried out by solid-state lipid binding assays using Echelon™ PIP Strips. […] Defensin binding was quantitated by densitometry on the developed lipid strips.

[2] = tested on: U937 human myelomonocytic cells; assay: ATP bioluminescence (ATP release) assay, U937; assay type: cell-based; details: read over 30 min
Protocol: ATP bioluminescence assay (Roche Diagnostics, NSW Australia) was used to quantitate the release of ATP by permeabilised tumour cells. The Luciferase reagent was dissolved as per manufacturer's instructions and incubated for 5 min at 4° C. Briefly, cells were re-suspended at a concentration of 1×10^6 cells/mL in 1×PBS/0.1% BSA and added (40 μL/well) to the Luciferase reagent (50 μL/well) to a blank microtitre plate (Nunc™) containing 10 μL of protein samples. Simultaneously, using a multichannel pipette, the mixture was added (90 μL/well) and samples were immediately read on a microtitre plate reader at 562 nm for 30 min with readings taken at 30 s intervals. The data were analysed by SoftMaxPro 4.0 software (Molecular Devices Company).
(§1) To determine whether NaD1 kills tumour cells in a similar manner to fungus, the ability of NaD1 to permeabilise tumour cells was assessed using two different approaches. The first used a bioluminescence assay to measure the release of intracellular ATP.
(§2) The first used a bioluminescence assay to measure the release of intracellular ATP. 4×10^4 U937 (human myelomonocytic tumour cell line) were treated with increasing concentrations of PhD1A or rTPP3 (0-20-μM) and ATP release measured at intervals of 30 seconds for a total of 30 min by determining absorbance at 562 nm. The second approach used flow cytometry to determine the uptake of the fluorescent dye propidium iodide (PI) (2 μg/mL) by U937 (4×10^5/mL) following the treatment of cells with increasing concentrations of PhD1A (0 to 50 μM) or rTPP3 (0 to 40 μM) for 30 min.
(§3) The first used a bioluminescence assay to measure the release of intracellular ATP. 4×10^4U937 were treated with 10 μM of each defensin and ATP release measured at intervals of 30 seconds for a total of 30 min by determining absorbance at 562 nm. The second approach used flow cytometry to determine the uptake of the fluorescent dye propidium iodide (PI) (2 μg/mL) by U937 (4×10^5/mL) following the treatment of cells with […] of each defensin for 30 min.

[3] = tested on: human U937 myelomonocytic cells; assay: PI uptake flow cytometry cell permeabilisation assay, U937; assay type: cell-based; details: for PI+ U937 cells (mean ± SEM): 10 μM, absence of serum, Example 9, cell only control 27.03±0.52
Protocol: (§4) Unless otherwise stated, cells were re-suspended at a cell concentration of 4×10^5 cells/mL in complete culture RPMI-1640 medium supplemented with 10% FBS, 100 U/mL penicillin and 100 μg/mL streptomycin, and added to either a V-bottom 96-well plate or microfuge tubes. Cells were kept at 37° C., unless otherwise stated, during protein addition (5 μL) at various concentrations or the set concentration of 10 μM. Typically, cells were mixed with the protein of interest and incubated at 37° C. for 30 min. In certain experiments, cells were also incubated at either 4° C. or 37° C. for 2-60 min prior to flow cytometry analysis. Cells were added to an equal volume of complete culture medium containing 2 μg/mL propidium iodide (PI, Annexin V-FITC Apoptosis Detection Kit, Invitrogen) and analysed immediately by flow cytometry using a FACSCanto cell sorter (Becton Dickson, Fanklin Lakes, N.J.) and Cell Quest Pro Software (Becton Dickson). Typically, 5000-10000 events per sample were collected and the resultant data were analysed using FlowJo software (Tree Star, Ashland, Oreg.). Cells were gated appropriately based on forward scatter (FSC) and side scatter (SSC), with the viable cells determined by their ability to exclude PI. For analysis purposes, all data was standardised relative to control (normal cell % ranged from approx. 0-7%).
as §1, §2
(§5) The percentage of PI^+ cells was then determined by flow cytometry.
as §3

U937 cells = assay: PI uptake permeabilisation assay in the presence of serum; assay type: cell-based, human; details: for PI+ U937 cells: 10 μM defensin; for activity on tumour cells in the presence of serum: up to 40% serum
Protocol: as §4, §5
To assess the ability of PhD1A or rTPP3 to permeabilise tumour cells in the presence of serum, the PI-uptake flow cytometry assay was utilised as described in Example 2 with the following modifications: 4×10^5/mL U937 cells were incubated with […] PhD1A or rTPP3 in the presence of increasing concentrations of foetal calf serum (FCS) (0 to 40%) for 60 min followed by addition of 2 μg/mL PI. The percentage of PI^+ cells was then determined by flow cytometry.

[4] = tested on: Fusarium oxysporum f. sp. vasinfectum; details: read-out: IC50, growth of Fusarium oxysporum f. sp. vasinfectum
Protocol: Permeabilization of fungal membranes has also been reported for some plant defensins (Lay and Anderson, 2005). […] These five fungal species are all members of the ascomycete phylum and are distributed among three classes in the subphylum pezizomycotiria. These fungi are agronomically important fungal pathogens.
SP Sepharose elution fractions containing rNaD1 were loaded onto an analytical C8 RP-HPLC column and eluted using a 40 min linear gradient (0-100% buffer B). Proteins were detected by absorbance at 215 nm. […] Graph represents data from three separate experiments performed in quadruplicate. Error bars represent standard error of the mean.

[5] = tested on: human coronary artery smooth muscle cells (CASMC) and umbilical vein endothelial cells (HUVEC); details: read-out: IC50, viability of normal primary cells (MTT), 48 h
Protocol: Tumour cells were seeded in a 96-well microtitre plate (50 μL/well) at an optimum density determined in the cell optimisation assay as above. Background control wells (n=8) containing the same volume of complete culture medium were included in the assay. The microtitre plate was incubated overnight at 37° C., prior to the addition of proteins at various concentrations and the plate was incubated for a further 48 h. The cell viability 3-(4,5-dimethyl-2-thiazolyl)-2,5-diphenyl-2H-tetrazolium bromide (MTT, Sigma-Aldrich) assay was carried out as follows: the MTT solution (1 mg/mL) was added to each well (100 μL) and the plate incubated for 2-3 h at 37° C. under a humidified atmosphere containing 5% CO2/95% air. Subsequently, for adherent cell lines, the media was removed and replaced with dimethyl sulfoxide (100 μL, DMSO, Sigma-Aldrich), and placed on a shaker for 5 min to dissolve the tetrazolium salts. In the case of suspension cells, prior to the addition of DMSO the cells are spun at 1500 rpm for 5 min. Absorbance of each well was measured at 570 nm and the IC50 values (the protein concentration to inhibit 50% of cell growth) were determined using the Origin Software Program. […]

human red blood cells = assay: Red blood cell (RBC) lysis; details: for haemolytic activity: concentrations up to 100 μM
Protocol: Following ficoll-paque separation, RBCs were collected and washed with 1×PBS and pelleted at 1000×g for 10 min. RBCs were diluted 1 in 10 for treatment with increasing concentrations (0-100 μM) of defensins and incubated over-night under a humidified atmosphere of 5% CO2/95% air. […] The degree of red blood cell lysis was measured as absorbance at 412 nm.

Phoma betae = details: 1 μg/mL; cited from earlier work
Sclerotinia sclerotiorum = details: 100 μg/mL; cited from earlier work
[6] = Acute oral toxicity (OECD Test Guideline 423); assay type: in vivo, C57BL/6 mice
Text: This study was based on OECD Test Guideline 423 (OECD [Organisation for Economic Co-operation and Development]. 2001. Guideline 423: Acute Oral Toxicity—Acute Toxic Class Method. Paris: OECD).
Healthy female C57BL/6 mice derived from the same litter were obtained from either the Central Animal House at La Trobe University (Bundoora Campus) or from Monash Animal Services. The animals were identified by ear punch and kept three per cage during the study. The animals will be housed and maintained in groups of three in cages as per standard animal house conditions at La Trobe University.
On the day of dosing, the test mice were weighed and fasted for 4 h prior to dose administration. Just prior to dosing, the mice were reweighed. […] The protein solution was administered by oral gavage using a round-tipped canula needle. Feed was replaced 1 h after dosing. The mice received standard rodent diet and water ad libitum.
The mice were observed hourly for 4 h after dosing on day 1 and at least twice daily thereafter until scheduled killing on day 14. Signs of gross toxicity, adverse pharmacologic effects and behavioural changes were assessed and recorded daily as was the food and water consumption. The mice were reweighed at days 7 or 8 and 14. On the last day of the study (day 14), the mice were killed by inhalation of carbon dioxide and necropsied. All the mice received a gross pathological examination. The weights of the following organs were recorded: brain, heart, liver, lungs, kidneys, gastrointestinal tract, spleen and thymus. Subsequently, the samples were fixed in 4% (v/v) paraformaldehyde until paraffin embedding, sectioning and histopathological examination by the Australian Phenomics Network, University of Melbourne node. The gastrointestinal tract was divided into the following sections: stomach, duodenum, jejunum, ileum, cecum and colon.

[7] = Example 11, 30 min at 37° C., concentration printed 'at 100' (10 μM in the same block)
[8] = oral gavage, 20, 50 or 300 mg NaD1/kg body weight, 14 days

Substance: PhD1A: Petunia hybrida Class II defensin; mature domain SEQ ID NO: 18 (ATCKAECPTWDGICINKGPCVKCCKAQPEKFTDGHCSKVLRRCLCTKPC; listed as Petunia hybrida)
- binding to phosphatidic acid (PA) [1]: bound strongly
- phospholipid binding preference (PIP strips) [1]: general preference of binding to phosphoinositides
- release of ATP from U937 cells [2]: release of ATP in a time-dependent and concentration-dependent manner
- PI+ U937 cells ([3]; 6.25 μM, 30 min, 37° C.): ~35%
- PI+ U937 cells (mean ± SEM) [3]: 57.07±2.76%
- PI+ U937 cells ([3]; 50 μM, 30 min, 37° C.): ~90%
- PI+ U937 cells (U937 cells; 0% FCS): 90%
- PI+ U937 cells (U937 cells; 40% FCS): 40%
- activity on tumour cells in the presence of serum (U937 cells): retained the ability to permeabilise U937 cells

Substance: NsD2: Nicotiana suaveolens class II defensin; mature domain SEQ ID NO: 26 (KDCKRESNTFPGICITKLPCRRACISEKFADGHCSKILRRCLCTKPC; listed as Nicotiana suaveolens)
- phospholipid binding preference (PIP strips) [1]: general preference of binding to phosphoinositides
- release of ATP from U937 cells [2]: release of ATP in a time-dependent and concentration-dependent manner
- PI+ U937 cells [3, 7]: ~60%

Substance: ARECKTESNTFPGICITKPPCRKACISEKFTDGHCSKILRRCLCTKPC (disulfide 4-48, 15-35, 21-42, 25-44) [rNaD1]
- IC50 [4]: ~1.6 µM
- IC50 [5]: 7.5 to 12 µM
- haemolytic activity (human red blood cells): no ability to lyse RBCs
- haemolytic activity (human red blood cells; listed as recombinant NaD1): no haemolytic activity

Substance: rTPP3: Solanum lycopersicum (tomato) Class II defensin TPP3, recombinant (SEQ ID NO: 12) (AQQICKAPSQTFPGLCFMDSSCRKYCIKEKFTGGHCSKLQRKCLCTKPC; listed as Solanum lycopersicum)
- phospholipid binding preference (PIP strips) [1]: general preference of binding to phosphoinositides
- release of ATP from U937 cells [2]: release of ATP in a time-dependent and concentration-dependent manner
- PI+ U937 cells ([3]; 5 μM, 30 min, 37° C.): ~35%
- PI+ U937 cells (mean ± SEM) [3]: 49.97±2.93%
- PI+ U937 cells ([3]; 40 μM, 30 min, 37° C.): ~90%
- retention of permeabilisation activity (U937 cells; 5-40% FCS): up to 70%
- activity on tumour cells in the presence of serum (U937 cells): retained the ability to permeabilise U937 cells

Substance: NsD1: Nicotiana suaveolens class II defensin; mature domain SEQ ID NO: 22 (KDCKRESNTFPGICITKPPCRKACIREKFTDGHCSKILRRCLCTKPC; listed as Nicotiana suaveolens)
- phospholipid binding preference (PIP strips) [1]: general preference of binding to phosphoinositides
- release of ATP from U937 cells [2]: release of ATP in a time-dependent and concentration-dependent manner
- PI+ U937 cells [3, 7]: ~60%

Substance: Rs-AFP2: antifungal plant defensin from radish seeds (QKLCQRPSGTWSGVCGNNNACKNQCIRLEKARHGSCNYVFPAHKCICYFPC; UniProt P30230 30-80, looked up)
- growth of Phoma betae (Phoma betae): inhibits the growth
- activity against Sclerotinia sclerotiorum (Sclerotinia sclerotiorum): ineffective

Substance: RECKTESNTFPGICITKPPCRKACISEKFTDGHCSKILRRCLCTKPC (disulfide 3-47, 14-34, 20-41, 24-43) [NaD1]
- IC50 [4]: ~1 µM
- adverse effects on mice ([6]; administered orally at up to 300 mg NaD1/kg body weight): no adverse effects
- histopathology of organs ([6]; highest dose of 300 mg NaD1/kg body weight): possible slight irritation to the stomach epithelium
- body weight [6, 8]: no treatment related effects on body weight
- clinical signs [6, 8]: no signs of gross toxicity, adverse pharmacologic effects or behavioural changes
- survival [6, 8]: survived to termination of the study
- histopathology of organs ([6]; oral gavage, doses below 300 mg NaD1/kg body weight): No pathologies, attributable to protein administration
- IC50 [5]: 7.5 to 12 µM
- RBC lysis (relative to water = 100% lysis) (human red blood cells; 100 μM, 16 h, 37° C.): ~50%
